In patent US20090196854A1, “METHODS AND COMPOSITIONS FOR USE OF CRL 5803 CELLS FOR EXPRESSION OF BIOTHERAPEUTICS AND ENCAPSULATED CELL-BASED DELIVERY” (priority 2008, published 2009):
In brackets after ≈: the same amount, converted by molar mass.

Legend:
CRL 5803 = assay: sensitivity to killing by 2-deoxyglucose; type: cell-based, human; settings: up to 20 mM 2-DG
Procedure: (§1) The glucose requirements of CRL 5803 was also determined and compared to the HTB10 and CRL5816 cell lines.

HTB10 = assay: sensitivity to killing by 2-deoxyglucose; type: cell-based, human
Procedure: as §1
(§2) The 2-deoxyglucose sensitivity was tested with the 4 cell lines being screened for CNS use with doses of 2-DG from 1-20 mM, the HTB10 cell line was also included in this screen as a positive control for 2-DG killing. […] However, 2-DG did result in slowed growth, and concentrations producing 50% inhibition (IC50) were calculated (based on a four-parameter fit of the data).

CRL5816 cells = assay: sensitivity to killing by 2-deoxyglucose; type: cell-based, human; settings: 10 mM 2-deoxyglucose, 4 days
[1] = test system: four candidate cell lines; assay: 2-deoxyglucose sensitivity (growth) of cell lines screened for CNS use; type: cell-based, human
Procedure: as §2

ARPE-19 cells = assay: sensitivity to 5-FU, growth monitored with resazurin
Procedure: (§3) The newly selected cell types were then screened for r sensitivity to 5-fluorouracil (5-FU). This screening was accomplished by plating the cell lines in 48 well plates, and after overnight attachment adding varying concentrations of 5-FU from 0-500 μM. The growth of the cells was then monitored at 1-2 day intervals with the fluorescent substrate resazurin.

A2058 = test system: A2058
Procedure: as §3

[2] = test system: all cell lines except for ARPE-19 and A2058 (CRL 5803, CCL-205, CRL1440); assay: sensitivity to 5-FU, growth monitored with resazurin; type: cell-based, human; settings: all cell lines except ARPE-19 and A2058
BON cell line = assay: 5-FU cytotoxicity screen; type: cell-based; settings: Homo sapiens, neutral red endpoint after 5-7 days, read-out: concentration required to kill 50% of the cells
Procedure: Drug Exposure and elimination of BON cell line: The drug 5-FU was dissolved in DMSO at a concentration of 0.5 M, and this stock used to make media with micromolar concentrations of the drug ([…]). Cells plated in 24 or 48 well plates in growth phase were cultured with 5-FU supplemented medium for 1-2 weeks. […] This growth measurement was conducted during exposure and if cells grew or survived, growth was followed in the weeks subsequent to removal of 5-FU.
In initial screening, an endpoint assay of viability was performed with the uptake of neutral red (50 μg/ml for 1 h) after 5-7 days, later studies of the selected cell lines used resazurin to monitor growth, as well as viable cell mass.

K3.31 = assay: 5FC and 5FU dose-response in BDNF-expressing CRL 5803 line and CD transfectants; type: cell-based; settings: Homo sapiens; K3.31; read-out: IC50 for 5FU
Procedure: (§4) CRL 5803 cells expressing BDNF and CD: The CRL 5803 cell line was transfected with BDNF and clones expressing BDNF were selected. These selected clones were expanded to provide cells for transfections with cytosine deaminase plasmid (CX014). Four CD gene transfection studies were performed with three different BDNF-expressing cell lines. For each cell line at least 24 resistant clones were picked and screened for sensitivity to 100 μM 5FC. The clones with the lowest survival in 5FC (as percent of control wells) were then expanded for dose-response studies with 5FC and 5FU. Cytotoxicity of 5FC was used as an indication of CD gene expression, and this screen provided 6-9 clones per transfection. The IC50 for 5FU indicated the maximum potential cytotoxicity of the prodrug, 5FC, in cells expressing sufficient levels of CD gene and protein.

K3.4 = assay: as above; type: cell-based; settings: Homo sapiens, read-out: IC50 for 5-FU
Procedure: as §4

K3.3 = assay: as above; type: cell-based; settings: Homo sapiens; K3.3; read-out: IC50 for 5FU
Procedure: as §4

CCL205 = type: cell-based, human
Procedure: (§5) The cell lines were plated in 48 well plates at an appropriate dilution of cells for each cell line to provide for rapid entry into log phase of growth. The various concentrations of the selection drugs were added so that the drugs were present at the initiation of log phase growth and viable cells were determined after 7-10 days of culture. The screening used data for functional mass at the end of the study to express viable cells as a percentage of the vehicle, or no-treatment control wells. […] The % viable cell mass data was plotted, and fitted typically with a four-parameter equation. The fitted equation was used to calculate the IC50 dose. The drugs tested were G418 (inactivated by neomycin phophotransferase, NPT), hygromycin (inactivated by hygromycin phosphotansferse, HPT), blasticidin (inactivated by blasticidin deaminase, BSD), and zeocin (bound by bleomycin binding protein, BBP). These antibiotics were obtained from Invitrogen/Gibco (Invitrogen SA, Barcelona).
(§6) The drugs, G418, Zeocin, hygromycin, and blasticidin were obtained and used as described earlier. The most important aspect of these studies was to identify the concentration needed to kill all non-transfected cells.

ARPE-19 = type: cell-based, human
Procedure: as §5, §6

CRL5803 = type: cell-based, human
Procedure: as §5, §6

CRL1440 = type: cell-based, human
Procedure: as §5, §6

CRL1440 polyclones = assay: Blsd dose-response of growth in BSD-transfected polyclones; type: cell-based, human
Source text: (§7) Each cell line was transfected under conditions optimized for that specific cell line, and with each of three different constructs. Within 2-3 days of transfection the cultures were selected with blasticidin at the appropriate selection concentration identified for that cell line.
(§8) The three plasmid constructs tested differed in the promoter used to control the expression of the BSD gene (commercial plasmids from Invitrogen). At the end of selection (10-14 days) the surviving cells were passaged to establish a B1sd-resistant polyclone. Each Blsd-resistant polyclonal cell line was analyzed for the capacity to grow in Blsd at varying concentrations. The Blsd dose-response curve was plotted (growth vs dose) and the IC50 calculated for each promoter construct. The IC50 was taken to indicate the average BSD enzyme expression and activity level, and to indicate the relative activity of the regulatory elements in each cell line context.

ARPE-19 polyclones = assay: as above; type: cell-based, human
Source text: as §7, §8

CCL205 polyclones = assay: as above; type: cell-based, human
Source text: as §7, §8

CRL 5803 polyclones = assay: as above; type: cell-based, human; settings: for IC50 for Blsd-resistant growth: CRL 5803
Source text: as §7, §8

CRL5867 = assay: selection drug and ouabain sensitivity screen; type: cell-based, human; settings: resistant if IC50 >1000 μg/ml (G418, hygromycin), ouabain 10^-4 M range
Procedure: (§9) The cell lines were plated in 48 well plates at an appropriate dilution of cells for each cell line to provide for rapid entry into log phase of growth. The various concentrations of the selection drugs were added so that the drugs were present at the initiation of log phase growth and viable cells were determined after 7-10 days of culture. The screening used data for functional mass at the end of the study to express viable cells as a percentage of the vehicle, or no-treatment control wells. Each treatment concentration was based on results for at least 3-4 wells. The % viable cell mass data was plotted, and fitted typically with a four-parameter equation. The fitted equation was used to calculate the IC50 dose. The drugs tested were G418 (inactivated by neomycin phophotransferase, NPT), hygromycin (inactivated by hygromycin phosphotansferse, HPT), blasticidin (inactivated by blasticidin deaminase, BSD), and zeocin (bound by bleomycin binding protein, BBP). These antibiotics were obtained from Invitrogen/Gibco (Invitrogen SA, Barcelona). Cells were considered to be resistant if the IC50 was >1000 μg/ml for G418, hygromycin, and zeocin, or concentrations >20 μg/ml for blasticidin. Although ouabain is not a classical selection drug, the rodent gene for Na—K ATPase shifts the sensitivity into the 10^−4 M range, while human cells are sensitive in the 10^−9 to 10^−6 M range, thus IC50s in the 10^−4 M range were taken to indicate resistance.

CRL1803 = assay: selection drug and ouabain sensitivity screen; type: cell-based, human; settings: ouabain IC50 in the 10^-4 M range taken as resistance
Procedure: as §9

CRL5808 = assay: selection drug and ouabain sensitivity screen; type: cell-based, human; settings: ouabain IC50 in the 10^-4 M range taken as resistance
Procedure: as §9

[3] = test system: human cell lines (CCL205, A2058, CRL1440, ARPE-19, CRL 5803); type: cell-based

## O=CC[C@@H](O)[C@H](O)[C@H](O)CO [2-DG, 2-deoxyglucose]
CRL 5803
  sensitivity to killing by 2-deoxyglucose: nor was it sensitive to killing
HTB10; HTB10 positive control, doses 1-20 mM
  killing by 2-DG: killed with the lowest concentration
HTB10; Homo sapiens, HTB10, read-out: 2-DG concentration for 50% killing
  IC50: 600 µM
CRL5816 cells
  viable cells after 2-deoxyglucose: no detectable viable cells
[1]; Homo sapiens, range over the cell lines, four-parameter fit, read-out: concentrations producing 50% inhibition (IC50) of growth
  IC50: 5000 to 11000 µM
[1]; doses of 2-DG from 1-20 mM
  killing by 2-DG: no killing

## O=c1[nH]cc(F)c(=O)[nH]1 [5-FU, 5-fluorouracil]
ARPE-19 cells
  5-FU concentrations that slowed growth: > 5 µM
  5-FU doses with killing and growth arrest: > 10 µM
  doubling time after 5-FU exposure: 60 h
  lethal dose of 5-FU: 500 µM
ARPE-19 cells; ARPE-19, 2 weeks of exposure
  effect of 100 μM 5-FU: not a lethal dose
A2058
  5-FU concentration at which killing began: > 500 µM
  5-FU concentration that did not affect the cell line: < 10 µM
  5-FU concentrations with dominantly cytostatic response: 10 to 100 µM
[2]
  concentration of 5-FU that resulted in 50% killing: < 35 µM
BON cell line
  IC50: ≥ 500 µM
K3.31
  IC50: 9 ± 1 µM
K3.4
  IC50: 8.5 ± 0.3 µM
K3.3
  IC50: 5 ± 1 µM

## CN(CC[C@H](N)CC(=O)N[C@H]1C=C[C@H](n2ccc(N)nc2=O)O[C@@H]1C(=O)O)C(=N)N [Blasticidin]
CCL205
  concentration found to kill non-transfected cells: 1 µg/mL
ARPE-19
  concentration found to kill non-transfected cells: 3 µg/mL
CRL5803
  concentration found to kill non-transfected cells: 2 µg/mL
CRL1440
  concentration found to kill non-transfected cells: 1 µg/mL
CRL1440 polyclones; CMV promoter-BSD
  IC50 for Blsd-resistant growth: 0.6 µg/mL
CRL1440 polyclones; EF-1 promoter polyclones
  IC50 for Blsd-resistant growth: 5 µg/mL
CRL1440 polyclones; UBq promoter polyclones
  IC50 for Blsd-resistant growth: 21 µg/mL
ARPE-19 polyclones; CMV promoter-BSD
  IC50 for Blsd-resistant growth: 12 µg/mL
ARPE-19 polyclones; EF-1a promoter-BSD
  IC50 for Blsd-resistant growth: 4.5 µg/mL
ARPE-19 polyclones; UBq promoter-BSD
  IC50 for Blsd-resistant growth: 3 µg/mL
ARPE-19 polyclones; best promoter
  shift in the inhibitory concentration of Blsd: 8 fold
CCL205 polyclones; CMV promoter
  IC90: > 3 µg/mL
CCL205 polyclones; EF-1 and UBq promoter constructs
  IC90: 0.8 µg/mL (≈ 1.89 µM)
CCL205 polyclones; all three promoter constructs
  growth-based IC50: 0.6 µg/mL
CRL 5803 polyclones; CMV promoter-BSD
  IC50 for Blsd-resistant growth: 21 µg/mL
CRL 5803 polyclones; EF-1α promoter-BSD
  IC50 for Blsd-resistant growth: 3 µg/mL
CRL 5803 polyclones; UBq promoter-BSD
  IC50 for Blsd-resistant growth: 35 µg/mL
CRL 5803 polyclones; CRL 5803 control cells transfected with NPT plasmid (no BSD)
  IC50 for growth in Blsd: 1 μg-Blsd/ml
CRL 5803 polyclones; CRL 5803 polyclones, best promoter
  shift in the inhibitory concentration of Blsd: 30 fold

## CN[C@@H]1[C@@H](O)[C@@H](O[C@@H]2[C@@H](O)[C@H](O[C@H]3O[C@H]([C@@H](C)O)[C@@H](O)[C@H](O)[C@H]3N)[C@@H](N)C[C@H]2N)OC[C@]1(C)O [G418]
CRL5867
  resistance or sensitivity to drug: sensitive to killing
CCL205
  concentration found to kill non-transfected cells: 75 µg/mL
ARPE-19
  concentration found to kill non-transfected cells: 175 µg/mL
CRL5803
  concentration found to kill non-transfected cells: 500 µg/mL
CRL1440
  concentration found to kill non-transfected cells: 100 µg/mL

## C[C@@H]1O[C@@H](O[C@H]2C[C@@H](O)[C@]3(CO)[C@H]4[C@H](O)C[C@]5(C)[C@@H](C6=CC(=O)OC6)CC[C@]5(O)[C@@H]4CC[C@]3(O)C2)[C@H](O)[C@H](O)[C@H]1O [ouabain]
CRL5867
  resistance or sensitivity to drug: resistance
CRL1803
  resistance or sensitivity to drug: resistant
CRL5808
  resistance or sensitivity to drug: resistant

## O=c1ccc2nc3ccc(O)cc3oc-2c1 [resorufin]
[3]
  concentration toxic with many cells: 1000 to 10000 nM
